In patent US9724358B2, “Minocycline compounds and methods of use thereof” (Paratek Pharmaceuticals, Inc., priority 2008, dated 2017):

Columns and labels:
Enterococcus = experiment: Phase 2 CSSSI study, clinical outcome by organism: Enterococcus; format: in vivo; details: ME population
Method: (§1) A randomized (1:1), controlled, evaluator-blinded Phase 2 study comparing 9-[(2,2-dimethyl-propyl amino)-methyl-minocycline (compound 1) and linezolid (Zyvox™) for the treatment of complicated skin and skin structure infections (CSSSI) was conducted. Patients with CSSSI who required initial intravenous (IV) therapy and met inclusion and exclusion criteria were enrolled at 11 centers in the US and were randomized to receive either compound 1 (100 mg Q24 h IV with 200 mg Q24 h oral step-down) or linezolid (600 mg Q12 h IV with 600 mg Q12 h oral step-down).
(§2) An infecting pathogen was defined as an isolate derived from the last positive culture taken from the site of infection under study prior to and including day 1.

Mixed GPC/GNR = experiment: Phase 2 CSSSI study, clinical outcome by organism: Mixed GPC/GNR; format: in vivo; details: ME population
Method: as §1, §2

GNR = experiment: Phase 2 CSSSI study, clinical outcome by organism: GNR; format: in vivo, gram-negative rods; details: ME population
Method: as §1, §2

[1] = Phase 2 CSSSI study, safety: ALT level; format: in vivo, human
Method: as §1
(§3) At each of the four structured evaluations, the blinded evaluator assessed the subject, with particular attention to scoring the findings at the primary site of infection and obtaining cultures. Clinical and microbiologic outcomes were determined using these assessments. Primary evaluation criteria was safety and tolerability compared with linezolid. Secondary evaluation criteria was efficacy of compound 1 compared to linezolid, as well as pharmacokinetics of compound 1.

[2] = Phase 2 CSSSI study, safety and adverse events by patient; format: in vivo, human
Method: as §1, §3
In addition, the patients in the study were monitored for adverse events (AE). An adverse event is any untoward medical occurrence temporally associated with the use of a medical product in a subject, whether or not the event is considered causally related to the medical product.

Mixed GPC = experiment: Phase 2 CSSSI study, clinical outcome by organism: Mixed GPC; format: in vivo; details: ME population
Method: as §1, §2

B-Strep = experiment: Phase 2 CSSSI study, clinical outcome by organism: B-Strep; format: in vivo, B-streptococci
Method: as §1, §2

MSSA = experiment: Phase 2 CSSSI study, clinical outcome by organism: MSSA; format: in vivo, Staphylococcus aureus
Method: as §1, §2

Viridans Strep = experiment: Phase 2 CSSSI study, clinical outcome by organism: Viridans Strep; format: in vivo, Viridans Streptococci; details: ME population
Method: as §1, §2

infecting pathogen = experiment: Phase 2 CSSSI study, microbiology outcome; format: in vivo, human; details: ME population
Method: as §2
A persisting pathogen at the site of infection under study was defined as an isolate that was the same genus and species as an infecting pathogen; and was cultured at the Test-of-Cure evaluation from the site of infection under study.
A superinfecting pathogen at the site of infection under study is defined as a pathogen meeting all of the following criteria: represented a genus and species not isolated during the Enrollment evaluation, was cultured at any time from the day 3 of treatment to the test of cure evaluation, inclusive; was cultured from a patient who had at least one infecting pathogen; and was cultured from a patient who represents a “clinical failure.”
Microbiological response to treatment was determined for each infecting pathogen using the following classification: documented eradication, presumed eradication, documented persistence, presumed persistence, or unknown.
Microbiological response to treatment was determined for each subject using the following classification:
Microbiologic Success—all infecting pathogens isolated at baseline were eradicated or presumed eradicated at the test-of-cure evaluation and no superinfecting pathogen was isolated from the site of infection under study.
Microbiological Failure—persistence or presumed persistence of one or more infecting pathogens or isolation of a superinfecting pathogen from the site of infection under study.

[3] = EOT, ALT abnormal at enrollment
[4] = EOT, ALT within normal limits at enrollment
[5] = TOC, ALT abnormal at enrollment
[6] = TOC, ALT within normal limits at enrollment
[7] = max on treatment, ALT abnormal at enrollment
[8] = max on treatment, ALT within normal limits at enrollment
[9] = probably or possibly drug-related by blinded evaluator
[10] = as determined in the trials of the Exemplification
[11] = clinical failure, no pathogen at TOC
[12] = clinical success, enrollment pathogen isolated at TOC
[13] = clinical success, no pathogen at TOC

With `CN(C)c1cc(CNCC(C)(C)C)c(O)c2c1C[C@H]1C[C@H]3[C@H](N(C)C)C(O)=C(C(N)=O)C(=O)[C@@]3(O)C(O)=C1C2=O` [Compound 1, 9-[(2,2-dimethyl-propylamino)-methyl]-minocycline] the “Clinical outcome Failure (number)” value (Enterococcus) was 1, the “Clinical outcome Success (number)” value (Enterococcus) was 1 and the “Clinical outcome Failure (number)” value (Mixed GPC/GNR) was 2. The “Clinical outcome Success (number)” value (Mixed GPC/GNR) was 12, the “Clinical outcome Failure (number)” value (GNR) was 2 and the “Clinical outcome Success (number)” value (GNR) was 7. The “ALT Increase: >2x ULN and 2x baseline (number)” value (shortened to “ALT Increase … (number)”) [1, 3] was 0, the “ALT NS: >ULN and <2x baseline (%)” value [1, 3] was 84.6% and the “ALT NS: >ULN and <2x baseline (number)” value [1, 3] was 11. The “ALT Within normal limits (%)” value [1, 3] was 15.4%, the “ALT Within normal limits (number)” value [1, 3] was 2 and the “ALT 1x-2x (%)” value [1, 4] was 6.5%. For the same compound, the “ALT 1x-2x (number)” value [1, 4] was 6, the “ALT 2x-3x (number)” value [1, 4] was 0 and the “ALT >3x (number)” value [1, 4] was 0. The “ALT Within normal limits (%)” value [1, 4] was 93.5%, the “ALT Within normal limits (number)” value [1, 4] was 86 and the “ALT Increase: >2x ULN and 2x baseline (%)” value [1, 5] was “(7.7%)”. The “ALT Increase … (number)” value [1, 5] was 1, the “ALT NS: >ULN and <2x baseline (%)” value [1, 5] was “(69.2%)” and the “ALT NS: >ULN and <2x baseline (number)” value [1, 5] was 9. The “ALT Within normal limits (%)” value [1, 5] was “(23.1%)”, the “ALT Within normal limits (number)” value [1, 5] was 3 and the “ALT 1x-2x (%)” value [1, 6] was “(5.6%)”. For the same compound, the “ALT 1x-2x (number)” value [1, 6] was 5, the “ALT 2x-3x (number)” value [1, 6] was 0 and the “ALT >3x (number)” value [1, 6] was 0. For the same compound, the “ALT Within normal limits (%)” value [1, 6] was “(94.4%)”, the “ALT Within normal limits (number)” value [1, 6] was 85 and the “ALT Increase: >2x ULN and 2x baseline (%)” value [1, 7] was “(14.3%)”. The “ALT Increase … (number)” value [1, 7] was 2, the “ALT NS: >ULN and <2x baseline (%)” value [1, 7] was “(78.6%)” and the “ALT NS: >ULN and <2x baseline (number)” value [1, 7] was 11. The “ALT Within normal limits (%)” value [1, 7] was “(7.1%)”, the “ALT Within normal limits (number)” value [1, 7] was 1 and the “ALT 1x-2x (%)” value [1, 8] was “(12.4%)”. For the same compound, the “ALT 1x-2x (number)” value [1, 8] was 12, the “ALT 2x-3x (number)” value [1, 8] was 0 and the “ALT >3x (%)” value [1, 8] was “(1.0%)”. For the same compound, the “ALT >3x (number)” value [1, 8] was 1, the “ALT Within normal limits (%)” value [1, 8] was “(86.6%)” and the “ALT Within normal limits (number)” value [1, 8] was 84. For the same compound, the tolerability ([2]; 100 mg Q24 h IV with 200 mg Q24 h oral step-down) was “well tolerated”, the “Adverse events by patient, Musculoskeletal, Drug Related” value ([2]; human, in vivo) was 0 and the “Adverse events by patient, Musculoskeletal, Total” value ([2]; human, in vivo) was 8. For the same compound, the “GI events leading to discontinuation of therapy” value ([2]; human, in vivo) was “did not result in discontinuation of therapy”, the “severity of GI events” value ([2]; observed almost entirely during oral therapy) was “mild” and the “Adverse events by patient, Cardiac, Drug Related” value [2, 9] was 0. For the same compound, the “Adverse events by patient, Ear, Drug Related” value [2, 9] was 0, the “Adverse events by patient, Eye, Drug Related” value [2, 9] was 0 and the “Adverse events by patient, GI, Drug Related” value [2, 9] was 12. For the same compound, the “Adverse events by patient, General, Drug Related” value [2, 9] was 5, the “Adverse events by patient, Heme, Drug Related” value [2, 9] was 0 and the “Adverse events by patient, Infection, Drug Related” value [2, 9] was 0. For the same compound, the “Adverse events by patient, Injury, Drug Related” value [2, 9] was 0, the “Adverse events by patient, Investigations, Drug Related” value [2, 9] was 3 and the “Adverse events by patient, Metabolism, Drug Related” value [2, 9] was 1. For the same compound, the “Adverse events by patient, Neurologic, Drug Related” value [2, 9] was 4, the “Adverse events by patient, Psych, Drug Related” value [2, 9] was 2 and the “Adverse events by patient, Renal, Drug Related” value [2, 9] was 1. For the same compound, the “Adverse events by patient, Reproductive, Drug Related” value [2, 9] was 0, the “Adverse events by patient, Respiratory, Drug Related” value [2, 9] was 0 and the “Adverse events by patient, Skin, Drug Related” value [2, 9] was 7. For the same compound, the “Adverse events by patient, Vascular, Drug Related” value [2, 9] was 0, the “Adverse events by patient, Cardiac, Total” value ([2]; safety population) was 4 and the “Adverse events by patient, Ear, Total” value ([2]; safety population) was 0. For the same compound, the “Adverse events by patient, Eye, Total” value ([2]; safety population) was 2, the “Adverse events by patient, GI, Total” value ([2]; safety population) was 21 and the “Adverse events by patient, General, Total” value ([2]; safety population) was 11. For the same compound, the “Adverse events by patient, Heme, Total” value ([2]; safety population) was 1, the “Adverse events by patient, Infection, Total” value ([2]; safety population) was 6 and the “Adverse events by patient, Injury, Total” value ([2]; safety population) was 1. The “Adverse events by patient, Investigations, Total” value ([2]; safety population) was 7, the “Adverse events by patient, Metabolism, Total” value ([2]; safety population) was 9 and the “Adverse events by patient, Neurologic, Total” value ([2]; safety population) was 12. For the same compound, the “Adverse events by patient, Psych, Total” value ([2]; safety population) was 5, the “Adverse events by patient, Renal, Total” value ([2]; safety population) was 2 and the “Adverse events by patient, Reproductive, Total” value ([2]; safety population) was 2. For the same compound, the “Adverse events by patient, Respiratory, Total” value ([2]; safety population) was 3, the “Adverse events by patient, Skin, Total” value ([2]; safety population) was 12 and the “Adverse events by patient, Vascular, Total” value ([2]; safety population) was 3. The “Patients with no adverse event (None), %” value ([2]; safety population) was 58.6%, the “Patients with no adverse event (None), number” value ([2]; safety population) was 65 and the “Total Patients with 1 or more AE, %” value ([2]; safety population) was 41.4%. The “Total Patients with 1 or more AE, number” value ([2]; safety population) was 56, the “Clinical outcome Failure (number)” value (Mixed GPC) was 2 and the “Clinical outcome Success (number)” value (Mixed GPC) was 16. The “Clinical outcome Failure (number)” value (B-Strep; ME population, B-Strep) was 0, the “Clinical outcome Success (number)” value (B-Strep; ME population, B-Strep) was 6 and the “clinical success rate against B. streptococci” value (B-Strep; [10]) was 100%. The “Clinical outcome Failure (number)” value (MSSA; ME population, MSSA) was 2, the “Clinical outcome Success (number)” value (MSSA; ME population, MSSA) was 27 and the “clinical success rate against MSSA” value (MSSA; [10]) was 93%. For the same compound, the “Clinical outcome Failure (number)” value (Viridans Strep) was 1, the “Clinical outcome Success (number)” value (Viridans Strep) was 3 and the “Presumed Persistence (% of subjects)” value (infecting pathogen; [11]) was 2.7%. For the same compound, the “Presumed Persistence (number of subjects)” value (infecting pathogen; [11]) was 2, the “Persistence (% of subjects)” value (infecting pathogen; [12]) was 2.7% and the “Persistence (number of subjects)” value (infecting pathogen; [12]) was 2. For the same compound, the “Presumed Eradication (% of subjects)” value (infecting pathogen; [13]) was 94.7% and the “Presumed Eradication (number of subjects)” value (infecting pathogen; [13]) was 71.
